From article PMC7796107, “Efficient Separation of Phytochemicals from Muehlenbeckia volcanica (Benth.) Endl. by Polarity-Stepwise Elution Counter-Current Chromatography and Their Antioxidant, Antiglycation, and Aldose Reductase Inhibition Potentials” (Molecules, 2021)
Like-named read-outs stand apart in the source and are kept apart here. Marks after values point to notes of the source that are not given here.

Assays:
[1] = DPPH radical scavenging assay; type: biochemical; details: Trolox equivalent antioxidant capacity
Experimental: (§1) The antioxidant activities of the 70% methanol extract of M. volcanica and the separated compounds were evaluated using DPPH, ABTS, and ORAC assays. The results were expressed as Trolox equivalent antioxidant capacity (TEAC, µg Trolox/µg extract or µM Trolox/µM compound), which were calculated with the equations obtained from the calibration curves of Trolox standards (final concentrations) versus their DPPH and ABTS radical inhibition (%) and the net AUC value (ORAC assay).
The DPPH radical scavenging assay was carried out using an EL800 microplate reader (Bio-Tek Instruments, Winooski, VT, USA). Briefly, 180 μL of freshly prepared DPPH solution (0.32 mM in methanol) was mixed with 20 μL of sample (dissolved in methanol, extract 250 µg/mL; compounds 62.5–1000 µM) in a 96-well plate. The mixture was incubated for 20 min in the dark at 25 °C, and then, the absorbance was measured at […]. […] Results are expressed in µg Trolox equivalents/µg extract or µM Trolox equivalents/µM compound. The DPPH radical scavenging activity (%) is calculated using Equation (1):(1) %inhibition=1−Asample−Ablank1/Acontrol−Ablank2×100%, where Asample is the absorbance of DPPH solution with a sample, Ablank1 is the absorbance of the test sample without DPPH, Acontrol is the absorbance of DPPH solution without a sample, Ablank2 is the absorbance of methanol, without DPPH or a sample.

[2] = ORAC (oxygen radical absorbance capacity) assay; type: biochemical; details: Trolox equivalent antioxidant capacity, ORAC assay (peroxyl radicals)
Experimental: as §1
The ORAC assay was carried out using a Fluoroskan Ascent FL microplate reader (Thermo, Waltham, MA, USA) using the method described previously with minor modifications. Antioxidants can scavenge the peroxyl radicals generated by AAPH, which prevent the degradation of the fluorescein and, therefore, prevent the loss of the fluorescence of fluorescein. Briefly, fluorescein sodium salt (117 nM) and AAPH (40 mM) were freshly prepared in 0.1 M phosphate-buffered saline (PBS, pH 7.4). For reaction, 120 µL of fluorescein sodium salt (117 nM) and 20 µL of sample (dissolved in methanol, extract 10–20 µg/mL; compounds 10–160 µM) were mixed in a black 96-well plate and pre-incubated for 15 min at 37 °C. Next, 60 µL of AAPH (40 mM) was added, and the fluorescence was measured 100 times (interval 1 min) at excitation and emission wavelengths of 485 nm and 538 nm, respectively, by the microplate reader maintained at 37 °C. […] The relative ORAC values are expressed in µg Trolox equivalents/µg extract or µM Trolox equivalents/µM compound.

aldose reductase (AR) = target: T1, aldose reductase (AR) (Rattus norvegicus, UniProt P07943); assay: Aldose reductase (AR) inhibition assay, rat lens homogenate; type: biochemical, Sprague–Dawley rats; details: for IC50: rat lens AR homogenate
T1 construct: centrifuged at 10,000× g for 30 min at 4 °C (Centrifuge 5417R, Eppendorf, Germany) to obtain AR homogenate (in the supernatant); from tissue; host or cells: eye lenses of Sprague–Dawley rats
Experimental: For the extraction of AR, the rat eye lenses were grounded in a precooled mortar (−70 °C) and extracted using 0.1 M PBS (pH 6.2; about 0.5 mL of PBS per two frozen rat lenses).
A 96-well plate-based AR inhibition assay was used in this study, which was modified from a previous method. In principle, the rate of the absorbance decrease of NADPH at 340 nm (OD340 nm) was used for evaluation of the AR inhibitory activity. […] Then, as soon as 20 μL of the substrate (DL-glyceraldehyde dimer, 25 mM in 0.1 M PBS, pH 7.0) was added, the absorbance of the reaction solution at 340 nm was measured for 6 min using an Epoch microplate spectrophotometer (BioTek Instruments, Highland Park, IL, USA). […] The samples were first prepared at high concentrations in DMSO or in a mixture of DMSO and water and then diluted using water shortly before the experiment. The concentration of DMSO was kept within 0.2% (v/v) in the reaction system. […] The AR inhibition ratio (%) for the samples was calculated using Equation (4):(4) %inhibition=1−Slopes−Slopeb/Slopec−Slopeb×100%, where Slopec, Slopes, and Slopeb are the slopes obtained from the OD340 nm versus the reaction time (min) dotted lines of the control group (without sample), sample group (with enzyme and sample), and blank group (without enzyme or sample), respectively. |Slope| is the absolute value of Slope.

[3] = target: fructose-mediated bovine serum albumin (BSA) glycation (Bos taurus, UniProt P02769); assay: Antiglycation assay, fructose-mediated BSA glycation model; details: for inhibition at 12.5 µM / inhibition at 25 µM / inhibition at 50 µM / inhibition at 100 µM: read-out: Antiglycation activity, inhibition (%)
[4] = ABTS radical scavenging assay; type: biochemical; details: Trolox equivalent antioxidant capacity
Experimental: as §1
The ABTS radical scavenging assay was carried out using the same EL800 microplate reader. Briefly, 0.2 mM of ABTS diammonium salt was prepared in 3.5 mM of potassium persulfate aqueous solution, and the mixture solution was then diluted 10 times using distilled water. The diluted solution was allowed to stand for 24 h in the dark at room temperature (about 25 °C) to produce ABTS radical cations (ABTS^+). For reaction, 290 μL of ABTS^+ solution was mixed with 10 μL of sample (dissolved in methanol, extract 62.5–125 µg/mL; compounds 20–250 µM) in a 96-well plate, and the mixture solution was allowed to react for 10 min at 25 °C in the dark. Then, the absorbance was measured at 750 nm. […] Results are expressed in µg Trolox equivalents/µg extract or µM Trolox equivalents/µM compound. The ABTS radical scavenging activity (%) is calculated using Equation (1) where Asample is the absorbance of ABTS^+ solution with a sample, Ablank1 is the absorbance of the test sample without ABTS^+, Acontrol is the absorbance of ABTS^+ solution without a sample, Ablank2 is the absorbance of buffer, without ABTS^+ or a sample.

[5] = tested on: streptozotocin-induced diabetic rats; details: cited from earlier work
diabetic Octodon degus = tested on: diabetic Octodon degus; set-up: method as in PMID 401544; details: oral administration; cited from earlier work
[6] = cited from earlier work
[7] = 6.25 µM, read-out: AR inhibition activity, inhibition (%)
[8] = 12.5 µM, read-out: AR inhibition activity, inhibition (%)
[9] = 25 µM, read-out: AR inhibition activity, inhibition (%)
[10] = 50 µM, read-out: AR inhibition activity, inhibition (%)
[11] = read-out: AR inhibition activity, inhibition (%)

Chain of fructose-mediated bovine serum albumin (BSA) glycation (P02769 25-607): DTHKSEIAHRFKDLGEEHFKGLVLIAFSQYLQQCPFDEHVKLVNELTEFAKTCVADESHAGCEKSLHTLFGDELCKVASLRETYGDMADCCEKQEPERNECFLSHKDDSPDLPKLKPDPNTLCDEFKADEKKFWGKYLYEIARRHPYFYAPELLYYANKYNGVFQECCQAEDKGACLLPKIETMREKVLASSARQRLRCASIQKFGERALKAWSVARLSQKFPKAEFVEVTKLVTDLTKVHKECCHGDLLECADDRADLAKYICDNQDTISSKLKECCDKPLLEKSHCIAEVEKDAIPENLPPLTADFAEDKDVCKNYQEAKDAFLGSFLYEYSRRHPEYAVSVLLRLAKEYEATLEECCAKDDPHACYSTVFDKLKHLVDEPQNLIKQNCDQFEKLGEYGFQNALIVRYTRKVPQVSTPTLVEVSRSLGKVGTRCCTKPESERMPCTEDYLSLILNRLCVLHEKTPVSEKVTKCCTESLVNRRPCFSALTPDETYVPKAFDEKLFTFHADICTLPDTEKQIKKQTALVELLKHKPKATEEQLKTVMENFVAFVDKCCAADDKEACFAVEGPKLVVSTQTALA

SMILES	TEAC, DPPH [1]	TEAC, ORAC [2]	inhibition at 6.25 µM (aldose reductase (AR); [7]) [%]	inhibition at 12.5 µM (aldose reductase (AR); [8]) [%]	inhibition at 25 µM (aldose reductase (AR); [9]) [%]	inhibition at 50 µM (aldose reductase (AR); [10]) [%]	IC50 [3] [µM]	inhibition at 12.5 µM [3] [%]	inhibition at 25 µM [3] [%]	inhibition at 50 µM [3] [%]	inhibition at 100 µM [3] [%]	TEAC, ABTS [4]	Effect on oxidative stress [5]	other results
O=C(O)c1ccc(O)c(Nc2cc(C(=O)O)ccc2O)c1 [4,4′-dihydroxy-3,3′-imino-di-benzoic acid]	1.38 ± 0.05 ^d µM trolox/µM Compound	5.75 ± 0.26 ^b µM trolox/µM Compound	8.57 ± 0.06	14.4 ± 0.6	27.2 ± 0.36	53.3 ± 2.76	60.5 ± 2.62	< 0	14.9 ± 3.87	44.5 ± 2.54	68.4 ± 0.92	1.27 ± 0.03 ^c µM trolox/µM Compound		IC50 (aldose reductase (AR)): 47 ± 2.28 µM
Cl.N=C(N)NN [Aminoguanidine hydrochloride, aminoguanidine hydrochloride, reference compound]														Antiglycation activity, inhibition (%) ([3]; 1000 µM): 10.99 ± 0.07%; Antiglycation activity, inhibition (%) ([3]; 2000 µM): 44.58 ± 0.54%; Antiglycation activity, inhibition (%) ([3]; 4000 µM): 81.26 ± 0.88%; Antiglycation IC50 ([3]; fructose-mediated BSA glycation, 14 days, 37 °C): 317.36 µg/mL; IC50 ([3]; read-out: Antiglycation activity, IC50, fructose-mediated BSA glycation): 2181 ± 8.11 µM
O=C(O)c1cc(O)c(O)c(O)c1 [Gallic acid (3), gallic acid]	3.01 ± 0.04 ^a µM trolox/µM Compound	1.43 ± 0.08 ^d µM trolox/µM Compound	< 0	4.16 ± 5.43	4.16 ± 1.81	13.5 ± 1.21		< 0	< 0	3.69 ± 2.97	8.42 ± 1.27	3.35 ± 0.06 ^b µM trolox/µM Compound	ameliorate the oxidative stress	TEAC, DPPH ([1]; listed as gallic acid): 3.01 µM trolox/µM Compound
O=C(O)[C@H]1O[C@@H](Oc2c(-c3ccc(O)c(O)c3)oc3cc(O)cc(O)c3c2=O)[C@H](O)[C@@H](O)[C@@H]1O [Miquelianin (7), miquelianin]	1.97 ± 0.02 ^c µM trolox/µM Compound	5.85 ± 0.20 ^b µM trolox/µM Compound					24.5 ± 0.52	24.9 ± 2.12	49.4 ± 1.26	78 ± 2.28	90 ± 1.92	0.99 ± 0.05 ^f µM trolox/µM Compound		IC50 (aldose reductase (AR)): 7.93 ± 0.4 µM; inhibition at 3.125 µM (aldose reductase (AR); [11]): 29.7 ± 1.21%; inhibition at 6.25 µM (aldose reductase (AR); [11]): 44.5 ± 2.11%; inhibition at 12.5 µM (aldose reductase (AR); [11]): 59.1 ± 6.86%; inhibition at 25 µM (aldose reductase (AR); [11]): 76.7 ± 1.21%
O=C(O)c1ccc(O)c(O)c1 [Protocatechuic acid (4), protocatechuic acid]	0.72 ± 0.01 ^f µM trolox/µM Compound	5.79 ± 0.32 ^b µM trolox/µM Compound						5.26 ± 4.29	11.4 ± 3.92	36.1 ± 0.78	48.4 ± 1.76	0.88 ± 0.03 ^g µM trolox/µM Compound	ameliorate the oxidative stress	inhibition at 6.25 µM (aldose reductase (AR); [11]): 0.96 ± 2.11%; inhibition at 12.5 µM (aldose reductase (AR); [11]): 2.67 ± 2.71%; inhibition at 25 µM (aldose reductase (AR); [11]): 7.14 ± 0.6%; inhibition at 50 µM (aldose reductase (AR); [11]): 7.78 ± 1.51%
C[C@@H]1O[C@@H](Oc2c(-c3ccc(O)c(O)c3)oc3cc(O)cc(O)c3c2=O)[C@H](O)[C@H](O)[C@H]1O [Quercitrin (9), quercitrin]	0.92 ± 0.01 ^e µM trolox/µM Compound	5.32 ± 0.29 ^c µM trolox/µM Compound					17.6 ± 0.28	32.3 ± 0.24	75.2 ± 2.52	89.1 ± 1.26	94.3 ± 1.39	1.07 ± 0.05 ^e µM trolox/µM Compound	ameliorate the oxidative stress	Accumulation of sorbitol in the lens (diabetic Octodon degus): significantly decreased; Onset of cataract (diabetic Octodon degus): delayed; Inhibition of AGEs by trapping methylglyoxal [6]: inhibit AGEs by trapping methylglyoxal; inhibition at 0.049 µM (aldose reductase (AR); [11]): 12 ± 0.82%; inhibition at 0.098 µM (aldose reductase (AR); [11]): 33.3 ± 2.17%; inhibition at 0.195 µM (aldose reductase (AR); [11]): 54.6 ± 1.78%; inhibition at 3.125 µM (aldose reductase (AR); [11]): 94.35 ± 0.3%
O=C(O)C1=C[C@@H](O)[C@@H](O)[C@H](O)C1 [Shikimic acid (2), shikimic acid]			< 0	0.32 ± 1.21	5.86 ± 5.42	7.36 ± 0.3		< 0	< 0	< 0	< 0			
